The source of these data is patent US8663927B2, “Systems and methods for diagnosis and monitoring of bacteria-related conditions” (priority 2007, dated 2014).

One test has as its target T1, RhlR (Pseudomonas aeruginosa, UniProt P54292).
T1 construct: expressed in transfected cells; host or cells: Escherichia coli JM109 transformed with plasmid pSB406
As to the kind of experiment: Whole-cell sensing system harboring plasmid pSB406 (rhlR, PrhlI::luxCDABE) in E. coli JM109, bioluminescence. The test is classed as cell-based. The following applies: for Limit of Detection: concentration giving signal >= blank average plus three standard deviations; for Signal Intensity at 1 × 10^−4 M: pSB406 sensing cells, 2 h incubation at 37° C., racemic AHL, average ± one standard deviation; for response of the biosensing system at the highest concentration tested: pSB406, 1×10^−4 M. How it is done: (§1) The bacterial strain Escherichia coli JM109 was purchased from Stratagene (Cedar Creek, Tex.). Plasmids pSB406 and pSB1075 were transformed respectively into competent E. coli JM109 cells using the standard protocol provided by the manufacturer. The transformed cells were grown at 37° C. overnight on LB agar plates containing 50 μg/mL ampicillin. Cells from a single colony were grown overnight at 37° C., 250 rpm in LB broth containing the same amount (w/v) of ampicillin. Glycerol stocks were prepared from those cell cultures and stored at −80° C. Fresh cell cultures were obtained from the glycerol stocks and grown in an orbital shaker at 37° C., 250 rpm until an optical density at 600 nm (OD600 nm) of 0.45-0.50 was reached.
(§2) Commercially available AHLs were dissolved in acetonitrile to obtain 1×10^−2 M stock solutions, which were serially diluted with distilled, deionized water. AHL standard solutions of concentrations ranging from 1×10^−4 to 1×10^−9 M were obtained. A 1% solution of acetonitrile in distilled, deionized water was used as blank. […] A total of 100 μL of each of these solutions was added in triplicate to culture tubes containing 1 mL of cell culture grown to an OD600 nm of 0.45-0.50. These culture tubes were then incubated in an orbital shaker at 37° C. at 250 rpm for 2 h. The induced bioluminescence was then measured using a microplate reader after transferring 200 μL aliquots in triplicate from each culture tube into a 96-well micro titer plate. The total measuring time/well was 0.20 s. The light intensity was expressed in relative light units (RLU). The results were plotted using the software GraphPad Prism 4 (GraphPad Software, Inc., San Diego, Calif.).
(§3) Two different whole-cell sensing systems were used, harboring either the pSB406 or pSB1075 plasmid, which are based on P. aeruginosa quorum sensing regulatory systems. The plasmids pSB406 and pSB 1075 incorporate the genes rhlR and lasR, respectively, and the reporter gene cassette luxCDABE under transcriptional control of the promoters of the genes rhlI and lasI (PrhlI and PlasI) respectively. Since the rhlI and lasI genes code for the synthases for the AHLs, they are not cloned into plasmids used for sensing. When AHLs are present in the environment of the sensing bacterial cells, they bind to the regulatory proteins RhlR and LasR. Subsequently, the regulatory protein-AHL complex binds to the corresponding promoter and activates gene transcription (see, e.g., FIG. 2A for a schematic representation of AHL-dependent regulation of quorum sensing in LuxR/LuxI-type systems, and FIG. 2B for a schematic representation of plasmids pSB1075 and pSB406). As a result, the luxCDABE cassette is expressed and a bioluminescent signal is produced. Further, the bioluminescence signal produced is directly proportional to the amount of the target AHL molecule present.
Characterization of the whole-cell biosensing systems for the detection of AHLs was performed by incubating the bacterial cells with standard N-acyl homoserine lactone compounds with acyl side chains of different lengths. […] [19] […] Both compounds could be detected at concentrations as low as 1×10^−9 M, with a dynamic range of 4 orders of magnitude. The limit of detection was defined as the analyte concentration that produced a signal equal to or higher than the average signal produced by the blank plus three standard deviations.

Another test concerns the target T2, LasR (Pseudomonas aeruginosa, UniProt P25084).
T2 construct: expressed in transfected cells; host or cells: Escherichia coli JM109 transformed with plasmid pSB1075
Description: Whole-cell sensing system harboring plasmid pSB1075 (lasR, PlasI::luxCDABE) in E. coli JM109, bioluminescence. The test is classed as cell-based. Conditions: for Dynamic Range / Limit of Detection: pSB1075; for Limit of Detection: concentration giving signal >= blank average plus three standard deviations; for Signal Intensity at 1 × 10^−4 M: pSB1075 sensing cells, 2 h incubation at 37° C., racemic AHL, average ± one standard deviation (n = 3). How it is done: as §1, §2, §3
The limit of detection was 1×10^−9 M for C14-HSL, as well as C12-HSL.

In another test the test system is V. harveyi strain BB170. Description: AI-2 whole-cell sensing with bioluminescent sensor strain BB170. It counts as cell-based, Vibrio harveyi. Conditions: 10^−7 M AI-2, after 2.5 hours of incubation with the BB170 sensor strain. How it is done:
AB media used to grow V. harveyi strain BB170, a genetically modified strain that produces light in response to AI-2, was prepared as described previously. The BB170 sensor strain was grown overnight in AB medium at 30° C. and 175 rpm. The following day, overnight grown BB170 culture was diluted in AB medium to obtain a final O.D.600 nm of 0.010.
Saliva samples were collected and processed as described hereinabove. The available stock of AI-2 was 3.9 mM. AI-2 standard solutions with concentrations ranging from 2.5×10^−4M to 10^−7M were then prepared by using distilled, deionized water. 10 μL of AI-2 standard solution was incubated with 90 μL of BB170 bacterial culture at O.D.600 nm 0.010, in triplicate on a microtitre plate. 10 μL water incubated with 90 μL of BB170 served as a blank. An orbital shaker set at 30° C. and 175 rpm was used for incubation. Bioluminescence was then measured over a period of time. In order to evaluate the effect of saliva matrix, saliva samples were also spiked with a particular concentration of AI-2 and then incubated with the BB170 strain. […]
Vibrio harveyi bioluminescent strain BB170 was used for the detection of AI-2 and was modified from the wild type V. harveyi so that it induces lux expression exclusively in response to AI-2. AI-2 is detected by BB170 when it binds to the periplasmic protein LuxP. […]

T1 sequence (P54292 whole entry): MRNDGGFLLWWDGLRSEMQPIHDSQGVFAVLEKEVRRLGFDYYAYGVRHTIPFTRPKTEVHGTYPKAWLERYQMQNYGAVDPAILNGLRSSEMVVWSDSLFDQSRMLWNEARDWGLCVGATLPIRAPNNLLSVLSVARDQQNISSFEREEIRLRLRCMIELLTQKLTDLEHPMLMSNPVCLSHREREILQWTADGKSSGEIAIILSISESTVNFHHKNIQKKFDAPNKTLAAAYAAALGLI
T2 sequence (P25084 whole entry): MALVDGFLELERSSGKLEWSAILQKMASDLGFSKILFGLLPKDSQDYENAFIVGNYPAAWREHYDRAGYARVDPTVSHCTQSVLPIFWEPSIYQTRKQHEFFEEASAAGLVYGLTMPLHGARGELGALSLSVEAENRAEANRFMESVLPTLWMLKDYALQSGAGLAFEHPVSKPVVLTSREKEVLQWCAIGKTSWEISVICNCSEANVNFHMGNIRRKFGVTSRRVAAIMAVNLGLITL

Consider `CCCCCCCC(=O)NC1CCOC1=O` (centres unmarked) [C8-HSL, N-octanoyl homoserine lactone], for which, at RhlR (pSB406), the “Dynamic Range” value was 1 to 100000 nM and the “Limit of Detection” value came to 1 nM. For the same compound, at RhlR, the “Signal Intensity at 1 × 10^−4 M” value is recorded as 6.87 ± 0.23 ×10^5, RLU. Besides, on LasR, the “Dynamic Range” value was 10000 to 100000 nM; the “Limit of Detection” value was determined as 10000 nM; the “Signal Intensity at 1 × 10^−4 M” value is 7.94 ± 0.70 ×10^5, RLU.

For the compound `CCCCCCCCCCCC(=O)NC1CCOC1=O` (centres unmarked) [C12-HSL, N-dodecanoyl homoserine lactone], at RhlR (pSB406), the “Dynamic Range” value lay in the range of 10 to 10000 nM and the “Limit of Detection” value was 10 nM. Also, the “Signal Intensity at 1 × 10^−4 M” value at RhlR was 8.40 ± 0.55 ×10^5, RLU. Further, on LasR, the “Dynamic Range” value was in the range of 1 to 10000 nM; the “Limit of Detection” value was 1 nM; the “Signal Intensity at 1 × 10^−4 M” value is on record as 8.99 ± 0.17 ×10^5, RLU.

`CCCC(=O)NC1CCOC1=O` (centres unmarked) [C4-HSL, N-butyryl homoserine lactone]: on RhlR (pSB406), the “Dynamic Range” value lay within 1 to 100000 nM, the dynamic range is given as 4 orders of magnitude and the “Limit of Detection” value is 1 nM. For the same compound, at RhlR, the “response of the biosensing system at the highest concentration tested” value is given as “induced the maximum response” and the “Signal Intensity at 1 × 10^−4 M” value is reported as 19.99 ± 0.00 ×10^5, RLU. In addition, on LasR, the “Dynamic Range” value lay in the range of 100 to 100000 nM; the “Limit of Detection” value came out at 100 nM; the “Signal Intensity at 1 × 10^−4 M” value is 1.87 ± 0.06 ×10^5, RLU.

For Autoinducer-2 [AI-2], in the test with V. harveyi strain BB170, the “Average Signal” value is listed as 324218 RLU.

Turning to `CCCC(=O)CC(=O)N[C@H]1CCOC1=O` [3-oxo-C6-HSL, N-(3-oxo)-hexanoyl homoserine lactone], at RhlR (pSB406), the “L-isomer versus DL-racemic mixture: limit of detection, dynamic range and maximum signal intensity of the dose-response curves” value is given as “no significant differences”.

Regarding `CCCCCCCCCCCCCC(=O)NC1CCOC1=O` (centres unmarked) [C14-HSL, N-tetradecanoyl homoserine lactone], on RhlR (pSB406), the “Limit of Detection” value is over 10000 nM. The “Signal Intensity at 1 × 10^−4 M” value at RhlR is listed as 4.22 ± 0.22 ×10^5, RLU. At LasR, the “Dynamic Range” value was in the range of 1 to 100000 nM; the “Limit of Detection” value was found to be 1 nM; the “Signal Intensity at 1 × 10^−4 M” value is 11.74 ± 0.09 ×10^5, RLU. Moreover, the “response of the whole-cell sensor at the highest concentration tested” value on LasR (pSB1075, 1×10^−4 M) is “induced the maximum response”.

As to `CCCCCC(=O)NC1CCOC1=O` (centres unmarked) [C6-HSL, N-hexanoyl homoserine lactone], on RhlR (pSB406), the “Dynamic Range” value was in the range of 1 to 100000 nM, the dynamic range is reported as 4 orders of magnitude and the “Limit of Detection” value was found to be 1 nM. At RhlR, the “response of the biosensing system at the highest concentration tested” value is on record as “induced the maximum response” and the “Signal Intensity at 1 × 10^−4 M” value is 19.64 ± 0.25 ×10^5, RLU. In addition, at LasR, the “Limit of Detection” value was over 100000 nM and the “Signal Intensity at 1 × 10^−4 M” value is recorded as 2.53 ± 1.15 ×10^5, RLU.
